Series [1] in a line: Permeability of compound in MDCKII-LE cells. It is filed as ADME, cell-based, Canis lupus familiaris. The conditions noted are these: dog, MDCK; read-out: permeability.
Series [2] in a line: Intrinsic clearance in human liver microsome. It is filed as ADME. The note with it: liver microsomes, read-out: CLH. On the technique in general: Liver microsomes are vesicles of endoplasmic reticulum, rich in cytochrome P450 enzymes.
The next series concerns MDR1 (P-gp). Briefly: Efflux ratio of permeability across basolateral to apical side over apical to basolateral side in dog MDCK-MDR1 cells. The class given is ADME, cell-based, Canis lupus familiaris.
Series [3] can be described thus: Fraction unbound in C57BL/6 mouse plasma. It is filed as ADME, cell-free.
The nature of series [4]: Fraction unbound in rat brain. The class given is ADME, cell-free.
Series [5] can be described thus: Ratio of fAUC in C57BL/6 mouse brain to plasma. The class given is ADME, cell-free. The conditions noted are these: brain and plasma, read-out: Ratio AUC.
Series [6] is described as follows: Ratio of AUC in C57BL/6 mouse brain to plasma at 1 mg/kg, sc. It is filed as ADME, organism-based. The note with it: brain and plasma, read-out: Ratio AUC.
The target in series [7] is T1, Muscarinic acetylcholine receptor M1 (Homo sapiens, UniProt P11229).
T1 sequence (P11229 whole entry): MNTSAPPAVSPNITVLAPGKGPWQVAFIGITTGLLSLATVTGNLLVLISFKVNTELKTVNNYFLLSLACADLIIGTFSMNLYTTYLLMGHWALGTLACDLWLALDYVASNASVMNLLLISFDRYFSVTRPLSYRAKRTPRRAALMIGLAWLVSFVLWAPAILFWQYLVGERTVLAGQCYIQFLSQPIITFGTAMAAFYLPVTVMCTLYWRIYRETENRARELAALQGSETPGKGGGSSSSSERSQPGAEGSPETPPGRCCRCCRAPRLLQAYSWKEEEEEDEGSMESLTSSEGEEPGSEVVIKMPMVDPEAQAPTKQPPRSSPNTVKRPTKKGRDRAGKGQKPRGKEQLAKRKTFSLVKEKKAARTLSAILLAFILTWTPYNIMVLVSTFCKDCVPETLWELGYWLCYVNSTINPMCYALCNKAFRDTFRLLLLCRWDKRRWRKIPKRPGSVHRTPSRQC
In words: Positive allosteric modulation of human muscarinic M1 receptor stably expressed in CHO cells assessed as increase in Ach-induced intracellular calcium level preincubated for 10 mins followed by addition of Ach at EC20 concentration by Fluo-8AM dye based FLIPR TETRA method. It is filed as functional, cell-based. Background: Calcium assays in cells follow changes in intracellular calcium, usually with a dye or a luminescent sensor.

Series [8] in a line: Ratio of AUC in mouse brain to plasma. It is filed as ADME, cell-free. The note with it: brain and plasma, read-out: Ratio AUC.

For orientation: efflux ratio means the permeability from basolateral to apical divided by that in the opposite direction, in the common usage. What is called pEC50 is −log10 of the EC50, conventionally taken in molar units.

pEC50: −log10 of the molar value.

On to `Cc1cnc(C(=O)N[C@H]2CCCC[C@@H]2O)cc1Cc1ccc(-n2cccn2)cc1` (single isomer, unassigned), for which the Papp in [1] turned out to be 19 ×10⁻⁶ cm/s. The CLint scaled in series [2] came to 20 mL/min/kg. Further, the efflux ratio with MDR1 (P-gp) came out at 1.5.

Regarding `Cc1cnc(C(=O)N[C@H]2CCOC[C@@H]2O)cc1Cc1ccc(-n2cccn2)cc1`, the Fu in series [3] was 7.4%; in series [4], 9%. The Kp uu in series [5] turned out to be 0.23. For the same compound, the Kp in [6] worked out at 0.2. Also, in [1], the Papp is 21 ×10⁻⁶ cm/s. For the same compound, the CLint scaled in series [2] is less than 8 mL/min/kg. Moreover, the efflux ratio in the series with MDR1 (P-gp) was found to be 1.4.

For `CO[C@@H]1CCN(c2ccc(Cc3cc(C(=O)N[C@H]4CCCC[C@@H]4O)c(=O)n(C)c3C)cc2)C1`, the Papp in series [1] is 23 ×10⁻⁶ cm/s. Further, in series [2], the CLint scaled is 22 mL/min/kg. In addition, the efflux ratio in the series with MDR1 (P-gp) is 2.2. In series [7], the pEC50 is 5.77.

Take `Cc1cc(F)c(C(=O)N[C@H]2CCOC[C@@H]2O)cc1Cc1ccc(-n2cccn2)cc1`: the Papp in series [1] came to 20 ×10⁻⁶ cm/s. Besides, the CLint scaled in series [2] is less than 10 mL/min/kg. For the same compound, the efflux ratio in the series with MDR1 (P-gp) amounted to 1.5. Further, the pEC50 in series [7] is 6.94.

Regarding `Cc1c(Cc2ccc(-c3cscn3)cc2)cc(C(=O)N[C@H]2CCCC[C@@H]2O)c(=O)n1C`, the Papp in series [1] was found to be 17 ×10⁻⁶ cm/s. Also, in [2], the CLint scaled turned out to be 26 mL/min/kg. Moreover, the efflux ratio in the series on MDR1 (P-gp) amounted to 2.4. In series [7], the negative logarithm of the EC50 (pEC50) was 6.78.

`O=C(N[C@H]1CCOC[C@@H]1O)c1cc(Cc2ccc(-n3cccn3)cc2)ccn1`: the Papp in [1] came out at 24 ×10⁻⁶ cm/s. The CLint scaled in [2] was less than 8 mL/min/kg. For the same compound, the efflux ratio in the series with MDR1 (P-gp) was found to be 1.8. For the same compound, the negative-log EC50 (pEC50) in series [7] is less than 5.05.

For `Cc1cnc(C(=O)N[C@H]2CCOC[C@@H]2O)cc1Cc1ccc(-c2cocn2)cc1`, the Papp in series [1] worked out at 32 ×10⁻⁶ cm/s. Also, in series [2], the CLint scaled is less than 8 mL/min/kg. Moreover, the efflux ratio with MDR1 (P-gp) came out at 1.2.

Take `Cc1c(Cc2ccc(-c3cocn3)cc2)cc(C(=O)N[C@H]2CCCC[C@@H]2O)c(=O)n1C`: in series [8], the Kp stood at 0.03. Also, in series [1], the Papp came out at 26 ×10⁻⁶ cm/s. The CLint scaled in [2] was found to be 17 mL/min/kg. Besides, the efflux ratio in the series with MDR1 (P-gp) was 2.4. In addition, the pEC50 in series [7] is 7.42.

Take `Cc1ncc(C(=O)N[C@H]2CCOC[C@@H]2O)cc1Cc1ccc(-n2cccn2)cc1`: the Papp in series [1] came to 8 ×10⁻⁶ cm/s. For the same compound, in series [2], the CLint scaled is less than 8 mL/min/kg. Besides, in the series on MDR1 (P-gp), the efflux ratio stood at 6.3. Further, the pEC50 in series [7] is 6.41.

`Cc1c(Cc2ccc(-n3cccn3)cc2)cc(C(=O)N[C@H]2CCCC[C@@H]2O)c(=O)n1C`: in series [8], the Kp was 0.05. Also, the Papp in series [1] worked out at 23 ×10⁻⁶ cm/s. Besides, the CLint scaled in series [2] was 20 mL/min/kg. Further, the efflux ratio in the series with MDR1 (P-gp) came out at 2.7. In series [7], the pEC50 was 7.54.

On to `Cc1c(Cc2ccc(-n3cccn3)cc2)cc(C(=O)N[C@H]2CCOC[C@@H]2O)c(=O)n1C`, for which the Papp in series [1] was determined as 20 ×10⁻⁶ cm/s. Also, in series [2], the CLint scaled is less than 8 mL/min/kg. Also, in the series on MDR1 (P-gp), the efflux ratio is more than 5.3. In addition, in series [7], the negative-log EC50 (pEC50) is 7.70.

Regarding `Cc1cc(N)c(C(=O)N[C@H]2CCOC[C@@H]2O)cc1Cc1ccc(-n2cccn2)cc1` (racemic), in series [1], the Papp amounted to 19 ×10⁻⁶ cm/s. Besides, the CLint scaled in [2] is 23 mL/min/kg. In the series with MDR1 (P-gp), the efflux ratio turned out to be 1.9. Further, the pEC50 in series [7] was less than 5.05.

On to `Cc1ccc(C(=O)N[C@H]2CCOC[C@@H]2O)cc1Cc1ccc(-n2cccn2)cc1`, for which the Papp in series [1] worked out at 16 ×10⁻⁶ cm/s. In addition, the CLint scaled in series [2] is less than 8 mL/min/kg. Further, in the series with MDR1 (P-gp), the efflux ratio is 2.2. Further, in series [7], the pEC50 is 6.68.

Turning to `Cc1c(Cc2ccc(-c3ccn(C)n3)cc2)cc(C(=O)N[C@H]2CCCC[C@@H]2O)c(=O)n1C`, the Papp in [1] turned out to be 13 ×10⁻⁶ cm/s. The CLint scaled in [2] came out at 13 mL/min/kg. For the same compound, the efflux ratio in the series on MDR1 (P-gp) amounted to 3.1. Also, the negative logarithm of the EC50 (pEC50) in [7] was 6.99.
